According to patent US4520200A, “Isoxazole derivatives” (Zambon S.p.A., priority 1978, dated 1985):
Where “and” joins values, the source holds several entries; their conditions need not be identical. Equal entries are not always repeated.

Experiments:
[1] = tolerance in different animal species and administration ways; type: in vivo
[2] = acute toxicity, LD50, rat; details: in vivo
[3] = acute toxicity, LD50, mouse; details: in vivo

With `CC(C)(C)NCC(O)c1cc(Br)no1` (stereo not drawn) [Z 1170, 1-(3-bromo-isoxazol-5-yl)-2-ter.butylaminoethanol] the tolerance [1] was “particularly favorable tolerance”, the LD50 ([2]; iv, i.v. (1 ml/100 g/60")) was 196 mg/kg and 650 µmol/kg and the LD50 ([2]; po, os) was over 2000 mg/kg. For the same compound, the LD50 ([3]; ip) was 230 mg/kg, the LD50 ([3]; iv, i.v. (1 ml/100 g/60")) was 126 mg/kg and 420 µmol/kg and the LD50 ([3]; po, os) was 770 mg/kg.
